In patent publication US20040200144A1, “Plant growth regulator and a method of producing the regulator” (Dainichiseika Color & Chemicals Mfg. Co., Ltd., priority 2003, published 2004):

Tests used:
Assay type in all cases: in vivo
tomato young plants = assay: Dwarfing test of tomato young plant; settings: for Plant Height / Dwarfing Rate: 5 ml per cell on 7th day, measured 20th day; for Dwarfing Rate: vs comparative group
Description: (§1) 50 g of sodium tripolyphosphate was dissolved in 400 ml of distilled water at 80° C., 17.5 g of cinnamic acid was added to the sodium tripolyphosphate solution and dissolved by stirring, the resultant solution was diluted with distilled water until the total volume of solution was 500 ml, and thus 3.5% cinnamic acid aqueous solution (pH 6.5) was prepared. The aqueous solution was further diluted with distilled water 70 times or 17.5 times, and 0.05% cinnamic acid aqueous solution and 0.2% cinnamic acid aqueous solution were prepared, respectively.
(§2) Nursery soil for house use was filled into paper joint pots (each with 24 cells: 34×43×50 mm/cell), water was sufficiently given to the soil, and seeds of carrots were sowed. After seeding, the pot was placed in the same greenhouse as described above to sprout. Subsequently, on the 5th day, the cinnamic aqueous acid solutions were added to the nursery soil in the joint pots. One of the joint pots (24 cells) was prepared as a 0.05% cinnamic acid aqueous solution addition group, and 5 ml of the 0.05% cinnamic acid aqueous solution was added to the nursery soil of each cell. Another one of the join pots was prepared as a 0.2% cinnamic acid aqueous solution addition group, and 5 ml of the 0.2% cinnamic acid aqueous solution was added to the nursery soil of each cell. The other one of the joint pots was prepared as a comparative group in which 5 ml of water is added to each cell, instead of the cinnamic acid aqueous solution. Subsequently, the cultivation of carrot young plants in each group was continued under general conditions. On the 27th day, the heights of young plants in each group were measured, the dwarfing rate (%) was calculated, and the dwarfing effect of cinnamic acid aqueous solution on carrot young plants was examined. […].
In the same way as in Example 12 except that seeds of tomato were sowed, and that the cinnamic acid solutions were added to the nursery soil of the joint pot on the 7th day, the dwarfing effect of cinnamic acid aqueous solution on tomato young plants was examined. […]

lettuce young plants = assay: Dwarfing test of lettuce young plant; settings: for Plant Height / Dwarfing Rate: 5 ml per cell on 5th day, measured 20th day; for Dwarfing Rate: vs comparative group
Description: as §1, §2
In the same way as in Example 5 except that seeds of lettuce were sowed, and that heights of young plants in each group were measured on the 20th day, the dwarfing effect of cinnamic acid aqueous solution on lettuce young plants was examined. […]

[1] = system: prince melon young plants; assay: Dwarfing test of prince melon young plant; settings: for Plant Height / Dwarfing Rate: 5 ml per cell on 7th day, measured 27th day; for Dwarfing Rate: vs comparative group
Description: as §1, §2
In the same way as in Example 12 except that seeds of tomato were sowed, and that the cinnamic acid solutions were added to the nursery soil of the joint pot on the 7th day, the dwarfing effect of cinnamic acid aqueous solution on tomato young plants was examined. […].
In the same way as in Example 17 except that seeds of watermelon were sowed, and that plant heights were measured on the 27th day, the dwarfing effect of cinnamic acid aqueous solution on watermelon young plants was examined. […].
In the same way as in Example 21 except that seeds of prince melon were sowed, the dwarfing effect of cinnamic acid aqueous solution on prince melon young plants was examined. […]

[2] = system: Japanese radish young plants; assay: Dwarfing test of Japanese radish young plant; settings: for Plant Height / Dwarfing Rate: 5 ml per cell on 5th day, measured 27th day; for Dwarfing Rate: vs comparative group
Description: as §1, §2
In the same way as in Example 5 except that seeds of Japanese radish were sowed, the dwarfing effect of cinnamic acid aqueous solution on Japanese radish young plants was examined. […]

cabbage young plants = assay: Dwarfing test of cabbage young plant; settings: for Plant Height / Dwarfing Rate: 5 ml per cell on 4th day, measured 22nd day; for Dwarfing Rate: vs comparative group
Description: Dwarfing rate (%)=[(the plant height of the comparative group)−(the plant height of an addition group)/the plant height of the comparative group]×100
18.4 g of potassium hydroxide was dissolved in 400 ml of distilled water at 20° C., 50 g of cinnamic acid was added to the potassium hydroxide solution and dissolved by stirring, the resultant solution was diluted with distilled water until the total volume of solution was 500 ml, and thus 10% cinnamic acid aqueous solution (pH 8.8) was prepared. The aqueous solution was further diluted with distilled water 100 times or 33.3 times, and 0.1% cinnamic acid aqueous solution and 0.3% cinnamic acid aqueous solution were prepared, respectively.
Nursery soil for house use was filled into the same polyethylene joint pot as described above, water was sufficiently given to the soil, and seeds of cabbage were sowed. After seeding, the pot was placed in the same greenhouse as described above to sprout. Subsequently, on the 4th day, the cinnamic acid aqueous solutions were added to the nursery soil in the joint pot. Among 36 cells, 12 cells were prepared as a 0.1% cinnamic acid aqueous solution addition group, and 5 ml of the 0.1% cinnamic acid aqueous solution in Example 3 was added to the nursery soil of each cell. Another 12 cells were prepared as 0.3% cinnamic acid aqueous solution addition group, and 5 ml of the 0.3% cinnamic acid aqueous solution in Example 3 was added to the nursery soil of each cell. Remaining 12 cells were prepared as a comparative group in which 5 ml of water is added to each cell, instead of the cinnamic acid aqueous solution. Subsequently, the cultivation of cabbage young plants in each group was continued under general conditions. On the 22nd day, the heights of young plants in each group were measured, the dwarfing rate (%) was calculated, and the dwarfing effect of cinnamic acid aqueous solution on cabbage young plants was examined.

burdock young plants = assay: Dwarfing test of burdock young plant; settings: for Plant Height / Dwarfing Rate: 5 ml per cell on 4th day, measured 20th day; for Dwarfing Rate: vs comparative group
Description: as §1, §2
In the same way as in Example 12 except that seeds of burdock were sowed, the dwarfing effect of cinnamic acid aqueous solution on burdock young plants was examined. […]

O=C(O)C=Cc1ccccc1 [cinnamic acid]
Plant Height (tomato young plants; 0.05% aqueous solution): 7.3 cm | Dwarfing Rate (tomato young plants; 0.05% aqueous solution): 20.7% | Plant Height (tomato young plants; 0.2% aqueous solution): 6.1 cm | Dwarfing Rate (tomato young plants; 0.2% aqueous solution): 33.7% | dwarfing effect (tomato young plants; tomato young plants, 0.05% and 0.2% aqueous solutions): effective | Plant Height (lettuce young plants; 0.05% aqueous solution): 5.7 cm | Dwarfing Rate (lettuce young plants; 0.05% aqueous solution): 6.6% | Plant Height (lettuce young plants; 0.2% aqueous solution): 4.3 cm | Dwarfing Rate (lettuce young plants; 0.2% aqueous solution): 29.5% | dwarfing effect (lettuce young plants; lettuce young plants, 0.05% and 0.2% aqueous solutions): effective | Plant Height ([1]; 0.05% aqueous solution): 5.3 cm | Dwarfing Rate ([1]; 0.05% aqueous solution): 5.4% | Plant Height ([1]; 0.2% aqueous solution): 4.1 cm | Dwarfing Rate ([1]; 0.2% aqueous solution): 26.8% | dwarfing effect ([1]; prince melon young plants, 0.05% and 0.2% aqueous solutions): effective | Plant Height ([2]; 0.05% aqueous solution): 15.3 cm | Dwarfing Rate ([2]; 0.05% aqueous solution): 1.9% | Plant Height ([2]; 0.2% aqueous solution): 10.9 cm | Dwarfing Rate ([2]; 0.2% aqueous solution): 30.1% | dwarfing effect ([2]; Japanese radish young plants, 0.05% and 0.2% aqueous solutions): effective | Plant Height (cabbage young plants; 0.1% aqueous solution): 7.9 cm | Dwarfing Rate (cabbage young plants; 0.1% aqueous solution): 14.1% | Plant Height (cabbage young plants; 0.3% aqueous solution): 6.1 cm | Dwarfing Rate (cabbage young plants; 0.3% aqueous solution): 33.7% | dwarfing effect (cabbage young plants; cabbage young plants, 0.1% and 0.3% aqueous solutions): effective | Plant Height (burdock young plants; 0.05% aqueous solution): 4.9 cm | Dwarfing Rate (burdock young plants; 0.05% aqueous solution): 21.0% | Plant Height (burdock young plants; 0.2% aqueous solution): 4.3 cm | Dwarfing Rate (burdock young plants; 0.2% aqueous solution): 30.6% | dwarfing effect (burdock young plants; burdock young plants, 0.05% and 0.2% aqueous solutions): effective
